In patent US8642785B2, “Photolabile dinitroindolinyl based compounds” (Philadelphia Health & Education Corporation, priority 2007, dated 2014):
Where “and” joins values, the source holds several entries; their conditions need not be identical. Equal entries are not always repeated.

Assays:
[1] = Solubility in physiological buffer; type: physicochemical; details: for solubility (in words): physiological buffer / pH
Method: (§1) In order to evoke currents with CNI-GABA 20 mW for 2 ms and 10 mM must be used, whereas with CDNI-GABA only 4 mW and 0.5 mM are required. […] The effectiveness of CDNI-GABA is believed to be an important asset because high concentrations of the cages block GABA receptor before uncaging.
Advantageously, inventor had discovered that addition of the negative charge with CDNI-Glu solves both of these problems

AMPA receptors = assay: 2-photon uncaging of caged glutamate, AMPA receptor currents on CA1 pyramidal neurons in acutely isolated brain slices; type: cell-based, rat
[2] = Basic photochemical properties: one-photon photolysis / quantum yield determination by comparison with MNI-Glu; type: physicochemical; details: for φ, quantum yield: Table 1, measured against MNI-Glu, filtered 280-400 nm Hg lamp; for quantum yield of photolysis: pH 7.4, compared with MNI-Glu; for ε · φ: product of extinction coefficient and quantum yield, in M-1 cm-1 (unit assumed); for photolyzed faster than MNI-Glu: pH 7.4, continuous-wave mercury arc lamp
Method: The data imply that the quantum yield for release of L-glutamate from CDNI-Glu was about 0.5.
The extent of photolysis was measured either by HPLC (with inosine as the internal standard), or using the inherent changes in the UV-visible absorption spectra of the chromophores (FIGS. 4A-4D).
Quantum yield determination. The quantum yield for uncaging the new caged amino acids (CDNI-Glu, CNL-Glu, CNI-GABA and CNI-GABA) were measured by comparing the time of photolysis with the filtered (280-400 nm) output of a 500 W medium pressure Hg lamp of an equimolar solution (0.25 mM) of MNI-Glu and new cage. Inosine was used an inert internal standard. The path-length of the cuvette was 0.1 mm. The extent of reaction was monitored by HPLC as described previously (Huang, et al., 2005). […] Both methods gave very similar results.

[3] = Two-photon (action) cross section; type: physicochemical; details: for δ (relative), two-photon action cross section: MNI-Glu = 1
Method: (§2) What is the reason for continued focus on cage development? […] The first good caged glutamate was CNB-Glu (Weiboldt, et al., 1994). UV-laser excitation released glutamate quickly and with usable efficiency from this caged compound. […] For this reason, Bhc- and DMCNB-Glu were synthesized (Furuta et al., 1999; Ellis-Davies, 1999). […] However, when used for 2-photon photolysis MNI-Glu is applied at high concentrations (5-12 mM) that must be irradiated with powers at the very limit of tolerance for brain tissue (Matsuzaki, et al., 2004). For this reason, an even better caged glutamate is desired. An NI-Glu derivative was made containing a cross-linked benzophenone chromophore (“antenna-NI-Glu”, Papageorgiou, et al., 2004). When UV light (300-308 nm) was used to excite the benzophenone antenna, triplet energy transfer to the MNI cage released glutamate with high efficiency, which dropped considerably (ca. 2.5-fold) at 354 nm. […] In contrast, the inventor was able to uncage CDNI-Glu at 354 nm with very high efficiency (similar to the antenna-NI-Glu at 300 nm).
Given the power-squared law for 2-photon excitation (Denk, et al., 1990), this implies that the new chromophore is about 140-250 higher action cross-section for 2-photon uncaging, defined by Denk et al. (1990).
as §1
AMPA receptor currents evoked by 2-photon uncaging of MNI-Glu and CDNI-Glu on CA1 pyramidal neurons in acutely isolated brain slices were compared. An image of neuron from slice of hippocampus Post-natal day 15 (P15) rat brain was obtained. MNI-Glu and CNDI-Glu were applied at 10 mM and 2.5 mM to the same neuron, and glutamate was uncaged in the image area at 2 power levels according to methods previously described in Matsuzaki, et al., 2001 (compare FIGS. 5A & 5B, MNI-Glu currents shown on right hand side, CDNI-Glu currents shown on left hand side). The currents evoked by uncaging from CNDI-Glu were approximately 2-3× larger than MNI-Glu, implying 5-10× better reactivity for 2-photon uncaging.

[4] = Hydrolysis of solutions stored at 4° C.; type: physicochemical
Method: as §2

[5] = background; cited from earlier work
[6] = 1 GM=10^−50 cm^4s/photon; background; cited from earlier work
[7] = laser flash photolysis (Gee, et al., 1994); cited from earlier work
GABA receptors [8] = details: outside-out membrane patches (Jayaraman, et al., 1999); cited from earlier work
GABA receptors [9] = assay: 2-photon uncaging of caged GABA on hippocampal CA1 neurons in acutely isolated brain slices; type: cell-based, rat; details: for concentration of caged compound required to evoke currents / laser power required to evoke currents: 2-photon uncaging; for laser power required to evoke currents: 720 nm; for block of GABA receptor by the cage before uncaging: CNI-GABA at high concentrations, CDNI-GABA in smaller amount

COc1c([N+](=O)[O-])cc([N+](=O)[O-])c2c1CCN2C(=O)CCC(N)C(=O)O (centres unmarked) [MDNI-Glu, 4-methoxy-5,7-dinitroinlinylglutamate]
concentration of solutions that could be made [1]: ≥ 1000 µM
behaviour of buffer solution when frozen ([1]; buffer, frozen, then room temperature): precipitate in buffer when frozen
current signals from hippocampal neurons on 2-photon uncaging (AMPA receptors; 1 mM solutions): did not evoke any current signals

NC(CCC(=O)N1CCc2c(OCC(=O)O)ccc([N+](=O)[O-])c21)C(=O)O (centres unmarked) [CNI-Glu, 4-carboxymethoxy-7-nitroinlinylglutamate]
ε, molar extinction coefficient [2]: 4,300 M^−1 cm^−1
fraction photolyzed during the time required for complete photolysis of CDNI-Glu ([2]; NMR analysis of a photolysis solution of 7, CNI-Glu and CDNI-Glu): about 10%
φ, quantum yield [2]: 0.1
quantum yield of photolysis [2]: about 0.1
ε · φ [2]: 430
δ (relative), two-photon action cross section [3]: 1

N[C@@H](CCC(=O)N1CCc2c(OCC(=O)O)c([N+](=O)[O-])cc([N+](=O)[O-])c21)C(=O)O [CDNI-Glu]
ε, molar extinction coefficient [2]: 8,600 M^−1 cm^−1
release of L-glutamate on photolysis ([2]; NMR analysis of the reaction mixture): essentially quantitatively
φ, quantum yield [2]: 0.5
quantum yield for release of L-glutamate ([2]; pH 7.4): about 0.5
quantum yield of photolysis [2]: about 0.5
ε · φ [2]: 4,300
action cross-section for 2-photon uncaging, higher than MNI-Glu ([3]; implied by power-squared law for 2-photon excitation): 140-250
δ (relative), two-photon action cross section [3]: 5-10
hydrolysis after 13 d [4]: 7%
solubility (in words) [1]: smooth solubilization of useful concentrations
currents evoked by 2-photon uncaging, times larger than MNI-Glu (AMPA receptors; 2.5 mM vs MNI-Glu 10 mM on the same neuron, P15 rat hippocampus slice, listed as CNDI-Glu): 2-3 times and 3-4 times
biological inertness of the cage toward AMPA receptors (AMPA receptors; before uncaging): biologically inert
rise- and decay-times of the evoked currents compared with MNI-Glu (AMPA receptors; same CA1 pyramidal neuron): similar
AMPA-receptor currents relative to MNI-Glu (AMPA receptors; sequential alternating application and uncaging on the same CA1 pyramidal neuron, same laser energy): five-times larger

N[C@@H](CCC(=O)OC(C(=O)O)c1ccccc1[N+](=O)[O-])C(=O)O (some centres unmarked) [CNB-Glu]
hydrolytic stability (in words) [5]: some what hydrolytically unstable
2-photon cross section [6]: less than 0.001 GM

NCCCC(=O)OC(C(=O)O)c1ccccc1[N+](=O)[O-] (centres unmarked) [CNB-GABA]
half-time of neurotransmitter release [7]: about 30 microseconds
10-90% rise time of activated currents (GABA receptors [8]): about 8 ms

NCCCC(=O)N1CCc2c(OCC(=O)O)c([N+](=O)[O-])cc([N+](=O)[O-])c21 [CDNI-GABA, (1-[4-Aminobutanoyl]-5,7-dinitroindolin-4-yloxy)acetic acid]
ε, molar extinction coefficient [2]: 8,600 M^−1 cm^−1
φ, quantum yield [2]: 0.6
quantum yield of photolysis [2]: 0.6
photolyzed faster than MNI-Glu [2]: 700%
ε · φ [2]: 5160
δ (relative), two-photon action cross section [3]: 5-10
concentration of caged compound required to evoke currents (GABA receptors [9]): 0.5 mM and 0.55 mM
laser power required to evoke currents (GABA receptors [9]): 4 mW
block of GABA receptor by the cage before uncaging (GABA receptors [9]): not blocking before uncaging
effectiveness relative to CNI-GABA (GABA receptors [9]; GABA receptors on CA1 neurons): 5-10 times

NCCCC(=O)N1CCc2c(OCC(=O)O)ccc([N+](=O)[O-])c21 [CNI-GABA]
ε, molar extinction coefficient [2]: 4,300 M^−1 cm^−1
φ, quantum yield [2]: 0.1
quantum yield of photolysis [2]: 0.1
photolyzed faster than MNI-Glu [2]: about 10%
ε · φ [2]: 430
δ (relative), two-photon action cross section [3]: 1
concentration of caged compound required to evoke currents (GABA receptors [9]): 10 mM
laser power required to evoke currents (GABA receptors [9]): 20 mW
block of GABA receptor by the cage before uncaging (GABA receptors [9]): partially blocks

COc1ccc([N+](=O)[O-])c2c1CCN2C(=O)CC[C@H](N)C(=O)O [MNI-Glu, Methoxynitroindoline-caged L-glutamate, reference compound]
ε, molar extinction coefficient [2]: 4,300 M^−1 cm^−1
φ, quantum yield [2]: 0.085
ε · φ [2]: 366
δ (relative), two-photon action cross section [3]: 1
hydrolysis after 2 d [4]: no detectable hydrolysis
hydrolysis after 13 d [4]: 1%

COc1ccc([N+](=O)[O-])c2c1CCN2C(=O)CCCN [MNI-GABA]
solubility (in words) [1]: not soluble enough for uncaging
